Data published in ChEMBL document CHEMBL4613308, “Screen of Unfocused Libraries Identified Compounds with Direct or Synergistic Antibacterial Activity” (ACS Med Chem Lett, 2020).
Converted amounts (≈) assume the structure as drawn.

Tests used:
Format in all cases: functional
Pseudomonas aeruginosa [1] = experiment: Antibacterial activity against multidrug-resistant Pseudomonas aeruginosa VR-143/97 clinical isolate assessed as bacterial growth inhibition by agar diffusion assay
Acinetobacter baumannii [2] = experiment: Antibacterial activity against Acinetobacter baumannii AC-54/97 clinical isolate assessed as bacterial growth inhibition by agar diffusion assay
Klebsiella pneumoniae [3] = experiment: Antibacterial activity against Klebsiella pneumoniae ATCC 13833 assessed as bacterial growth inhibition by agar diffusion assay
Pseudomonas aeruginosa [4] = experiment: Antibacterial activity against Pseudomonas aeruginosa ATCC 27853 assessed as bacterial growth inhibition by agar diffusion assay
Acinetobacter baumannii [5] = experiment: Antibacterial activity against Acinetobacter baumannii ATCC 17978 assessed as bacterial growth inhibition by agar diffusion assay
Enterobacter cloacae [6] = experiment: Antibacterial activity against multidrug-resistant Enterobacter cloacae VA 417/02 clinical isolate assessed as bacterial growth inhibition by agar diffusion assay
Streptococcus pyogenes = experiment: Antibacterial activity against Streptococcus pyogenes ATCC 12344 assessed as bacterial growth inhibition by agar diffusion assay
Escherichia coli [7] = experiment: Antibacterial activity against Escherichia coli CCUG assessed as bacterial growth inhibition by agar diffusion assay
Enterobacter cloacae [8] = experiment: Antibacterial activity against multidrug-resistant Enterobacter cloacae Z19 clinical isolate assessed as bacterial growth inhibition by agar diffusion assay
Staphylococcus aureus = experiment: Antibacterial activity against Staphylococcus aureus ATCC 25923 assessed as bacterial growth inhibition by agar diffusion assay
Bacillus spizizenii = experiment: Antibacterial activity against Bacillus subtilis ATCC 6633 assessed as bacterial growth inhibition by agar diffusion assay
Enterococcus faecalis = experiment: Antibacterial activity against Enterococcus faecalis ATCC 29212 assessed as bacterial growth inhibition by agar diffusion assay
Escherichia coli [9] = experiment: Antibacterial activity against multidrug-resistant Escherichia coli Z25 clinical isolate assessed as bacterial growth inhibition by agar diffusion assay
Escherichia coli [10] = experiment: Synergistic antibacterial activity against Escherichia coli CCUG in presence of 0.5 times MIC of colistin by microdilution broth method
Escherichia coli [11] = experiment: Potentiation of colistin-induced antibacterial activity against Escherichia coli CCUG assessed as fold reduction in colistin MIC in by microdilution broth method relative to colistin MIC
Klebsiella pneumoniae [12] = experiment: Synergistic antibacterial activity against Klebsiella pneumoniae ATCC 13833 in presence of 0.5 times MIC of colistin by microdilution broth method
Klebsiella pneumoniae [13] = experiment: Potentiation of colistin-induced antibacterial activity against Klebsiella pneumoniae ATCC 13833 assessed as fold reduction in colistin MIC by microdilution broth method relative to colistin MIC
Acinetobacter baumannii [14] = experiment: Potentiation of colistin-induced antibacterial activity against Acinetobacter baumannii ATCC 17978 assessed as fold reduction in colistin MIC by microdilution broth method relative to colistin MIC
Acinetobacter baumannii [15] = experiment: Synergistic antibacterial activity against Acinetobacter baumannii ATCC 17978 in presence of 0.5 times MIC of colistin by microdilution broth method

SMILES	MIC (Pseudomonas aeruginosa [1])	MIC (Acinetobacter baumannii [2])	MIC (Klebsiella pneumoniae [3])	MIC (Pseudomonas aeruginosa [4])	MIC (Acinetobacter baumannii [5])	MIC (Enterobacter cloacae [6])	MIC (Streptococcus pyogenes)	MIC (Escherichia coli [7])	MIC (Enterobacter cloacae [8])	MIC (Staphylococcus aureus)	MIC (Bacillus spizizenii)	MIC (Enterococcus faecalis)	MIC (Escherichia coli [9])	MIC (Escherichia coli [10])	log2FC (Escherichia coli [11])	MIC (Klebsiella pneumoniae [12])	log2FC (Klebsiella pneumoniae [13])	log2FC (Acinetobacter baumannii [14])	MIC (Acinetobacter baumannii [15])
CCOC(=O)c1cn2c3c(cccc3c1=O)OCC2CC (stereo unspecified)	> 256 µg/mL	> 256 µg/mL	128 µg/mL (≈ 446 µM)	> 256 µg/mL	256 µg/mL (≈ 891 µM)	> 256 µg/mL	> 256 µg/mL	> 256 µg/mL	> 256 µg/mL	> 256 µg/mL	128 µg/mL (≈ 446 µM)	256 µg/mL (≈ 891 µM)	> 256 µg/mL						
COc1ccc(-c2cc3c(cc2F)c(=O)c(C(=O)O)cn3C(C)(C)C)cc1	> 256 µg/mL	> 256 µg/mL	16 µg/mL (≈ 43.3 µM)	> 256 µg/mL	16 µg/mL (≈ 43.3 µM)	128 µg/mL (≈ 347 µM)	≤ 0.12 µg/mL	> 256 µg/mL	> 256 µg/mL	0.25 µg/mL (≈ 0.677 µM)	≤ 0.12 µg/mL	0.5 µg/mL (≈ 1.35 µM)	> 256 µg/mL						
Cc1c(C(=O)N(C)CCN(C)C)nn(-c2ccc(Cl)cc2)c1-n1cccc1			> 512 µg/mL	> 512 µg/mL	> 512 µg/mL			> 512 µg/mL						64 µg/mL	3	32 µg/mL	4	5	16 µg/mL
CCCCCCc1ccc(O)cc1OCCCCCCCCCCC(=O)NCCO			> 512 µg/mL	> 512 µg/mL	> 512 µg/mL			> 512 µg/mL						4 µg/mL	7	8 µg/mL	6	5	16 µg/mL
CCCCCCc1ccc(OCCCCCCCC(=O)NCCO)cc1O			> 512 µg/mL	> 512 µg/mL	> 512 µg/mL			> 512 µg/mL						8 µg/mL	6	4 µg/mL	7	5	16 µg/mL
